Experimental findings from patent publication US8895558B2, “Arylpiperazine-containing pyrrole 3-carboxamide derivatives for treating depressive disorders” (Green Cross Corporation, priority 2008, dated 2014) are described below.

The target of test [1] is T1, human recombinant 5-HT2C receptor (Homo sapiens, UniProt P28335).
T1 construct: purchased PerkinElmer
T1 sequence (P28335 33-458): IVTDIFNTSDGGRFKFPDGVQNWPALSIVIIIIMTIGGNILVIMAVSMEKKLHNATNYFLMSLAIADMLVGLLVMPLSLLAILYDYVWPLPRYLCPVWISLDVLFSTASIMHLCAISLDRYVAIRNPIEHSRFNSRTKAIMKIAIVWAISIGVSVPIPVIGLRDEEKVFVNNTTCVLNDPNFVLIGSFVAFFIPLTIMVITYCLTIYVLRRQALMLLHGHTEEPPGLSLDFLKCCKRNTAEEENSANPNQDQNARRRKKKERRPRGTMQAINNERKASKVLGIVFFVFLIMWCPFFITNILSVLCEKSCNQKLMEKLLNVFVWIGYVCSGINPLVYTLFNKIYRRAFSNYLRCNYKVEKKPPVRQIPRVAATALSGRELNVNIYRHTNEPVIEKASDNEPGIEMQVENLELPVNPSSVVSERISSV
Kind of test: Binding affinity for serotonin 5-HT2C receptor ([3H]Mesulergine). Particulars: CHO-K1 membranes, 1.3 nM [3H]Mesulergine. The method, then:
Receptor binding affinities of the compounds for serotonin receptors were measured by the method described in the literature [Park W K et al., Pharmacol Biochem Behav.
(§1) The binding affinity (IC50) of a compound for the receptor was calculated by computerized nonlinear regression analysis (GraphPad Prism Program, San Diego, USA) using 7-8 varied concentrations of the compound run in duplicate tubes.
Nonspecific binding was determined using 100 uM mianserin. The incubations were performed for 60 min at 27, and these were terminated by rapid filtration through filtermate. A glass fiber filter presoaked in 0.5% PEI.

For test [2], the target named is T2, human recombinant serotonin 5-HT2A receptor (Homo sapiens, UniProt P28223).
T2 construct: purchased PerkinElmer Life and Analytical Sciences, USA; host or cells: CHO-K1
T2 sequence (P28223 whole entry): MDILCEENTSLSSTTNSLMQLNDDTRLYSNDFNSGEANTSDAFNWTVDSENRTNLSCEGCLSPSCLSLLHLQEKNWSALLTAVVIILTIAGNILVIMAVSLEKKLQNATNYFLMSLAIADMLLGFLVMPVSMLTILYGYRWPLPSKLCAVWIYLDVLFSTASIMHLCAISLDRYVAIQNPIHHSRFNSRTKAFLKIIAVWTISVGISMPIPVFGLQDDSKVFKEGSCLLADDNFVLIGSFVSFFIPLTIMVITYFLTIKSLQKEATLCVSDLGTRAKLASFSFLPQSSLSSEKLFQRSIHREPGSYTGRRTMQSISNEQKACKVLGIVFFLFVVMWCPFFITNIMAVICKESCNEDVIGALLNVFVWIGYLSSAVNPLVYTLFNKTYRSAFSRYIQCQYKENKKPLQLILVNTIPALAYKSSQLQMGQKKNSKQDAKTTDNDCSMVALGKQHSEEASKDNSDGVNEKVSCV
Kind of test: Binding affinity for serotonin 5-HT2A receptor ([3H]Ketanserin). Particulars: CHO-K1 expressed receptor, 1 nM [3H]Ketanserin. The method, then:
Receptor binding affinities of the compounds for serotonin receptors were measured by the method described in the literature [Park W K et al., Pharmacol Biochem Behav. 2005, 82(2), 361-372].
For serotonin 5-HT2A binding, an aliquot of human recombinant serotonin 5-HT2A receptor (PerkinElmer Life and Analytical Sciences, USA) expressed in CHO-K1 cells (5 ug/well) and 1 nM [^3H]Ketanserin (PerkinElmer) were used in the presence of mianserin (20 uM) as nonspecific. The reaction mixture was incubated for 60 min at 27 using 50 mM Tris-HCl (pH 7.4) buffer containing 4 mM CaCl2 and 0.1% ascorbic acid, and harvested through filtermate A glass fiber filter (Wallac, Finland) presoaked in 0.5% polyethyleneimine (PEI) by microbeta filtermate-96 harvester (PerkinElmer) to terminate the reaction, and then washed with ice cold 50 mM Tris-HCl buffer solution (pH 7.4). The filter was then covered with MeltiLex, sealed in a sample bag, dried in an oven. The radioactivity retained in the filter was finally counted using MicroBeta Plus (Wallac).
as §1

Test [3] has as its target T3, human serotonin transporter (Homo sapiens, UniProt P31645).
T3 construct: purchased PerkinElmer; host or cells: HEK-293
Briefly: Binding affinity for serotonin transporter ([3H]Imipramine). Particulars: HEK-293 membranes, 2 nM [3H]Imipramine. The method, then:
For serotonin transporter binding assays, a reaction mixture with a final volume of 0.25 ml was prepared by mixing a test compound, human serotonin transporter membrane expressed in HEK-293 cells (PerkinElmer, 5 ug/well), [^3H]Imipramine (PerkinElmer, 2 nM) and 50 mM Tris-HCl (pH 7.4) buffer containing 120 mM NaCl and 5 mM KCl. The reaction mixture was incubated for 30 min at 27, and harvested through filtermate. A glass fiber filter presoaked in 0.5% PEI with ice cold 50 mM Tris-HCl buffer (pH 7.4) containing 0.9% NaCl.

Structures are written as SMILES. Counter-ions that a name gives are not always drawn.

T3 sequence (P31645 whole entry): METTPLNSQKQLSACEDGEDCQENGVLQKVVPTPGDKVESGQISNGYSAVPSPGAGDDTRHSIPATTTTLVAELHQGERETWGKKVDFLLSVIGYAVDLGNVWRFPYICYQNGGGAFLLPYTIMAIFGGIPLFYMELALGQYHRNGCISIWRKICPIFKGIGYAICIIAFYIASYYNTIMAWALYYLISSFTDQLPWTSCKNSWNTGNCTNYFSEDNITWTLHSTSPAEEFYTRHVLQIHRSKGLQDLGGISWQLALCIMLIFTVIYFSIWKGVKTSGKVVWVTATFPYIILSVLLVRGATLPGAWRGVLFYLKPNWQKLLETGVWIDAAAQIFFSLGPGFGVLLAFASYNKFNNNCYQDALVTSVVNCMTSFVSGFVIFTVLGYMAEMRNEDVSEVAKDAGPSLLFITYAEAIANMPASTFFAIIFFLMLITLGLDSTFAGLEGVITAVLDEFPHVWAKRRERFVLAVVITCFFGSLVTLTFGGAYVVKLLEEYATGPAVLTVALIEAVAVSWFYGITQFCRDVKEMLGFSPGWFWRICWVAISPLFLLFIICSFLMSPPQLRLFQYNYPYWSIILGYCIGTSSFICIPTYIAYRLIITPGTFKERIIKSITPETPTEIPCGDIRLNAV

Take `O=C(NCCCN1CCN(c2cccc(Cl)c2Cl)CC1)c1c[nH]c(-c2ccccc2)c1` [Example 124, N-(3-(4-(2,3-dichlorophenyl)piperazin-1-yl)propyl)-5-phenyl-1H-pyrrole-3-carboxamide]: the IC50 (commonly the concentration needed to halve the response being measured) in test [1] was 106 nM; in test [2] it was 23 nM; in test [3], 54 nM.
Taken in the same sequence, the figures for `CCn1c(-c2ccccc2)cc(C(=O)NCCCN2CCN(c3cccc(Cl)c3)CC2)c1C` [Example 4, N-(3-(4-(3-chlorophenyl)piperazin-1-yl)propyl)-1-ethyl-2-methyl-5-phenyl-1H-pyrrole-3-carboxamide] were 192 nM, 92 nM and 25.8 nM.
As to `Cc1cccc(N2CCN(CCCNC(=O)c3cc(-c4ccc(Cl)cc4)[nH]c3C)CC2)c1C` [Example 44, 5-(4-chlorophenyl)-N-(3-(4-(2,3-dimethylphenyl)piperazin-1-yl)propyl)-2-methyl-1H-pyrrole-3-carboxamide hydrochloride], the IC50 in test [1] was 189 nM; in test [2] it was 92 nM; in test [3], 19 nM.
Taken in the same sequence, the figures for `CCn1c(-c2ccccc2)cc(C(=O)NCCN2CCN(c3cccc(Cl)c3Cl)CC2)c1C` [Example 49, N-(2-(4-(2,3-dichlorophenyl)piperazin-1-yl)ethyl)-1-ethyl-2-methyl-5-phenyl-1H-pyrrole-3-carboxamide hydrochloride] were 96 nM, 100 nM and 85 nM.
As to `Cc1[nH]c(-c2ccccc2)cc1C(=O)NCCCN1CCN(c2cccc(Cl)c2Cl)CC1` [Example 25, N-(3-(4-(2,3-dichlorophenyl)piperazin-1-yl)propyl)-2-methyl-5-phenyl-1H-pyrrole-3-carboxamide], the IC50 in test [1] came out at 599 nM; in test [2] it was 300 nM; in test [3], 133 nM.
Taken in the same sequence, the figures for `Cc1c(C(=O)NCCCN2CCN(c3ccc(F)cc3)CC2)cc(-c2ccccc2)n1C` [Example 155, N-(3-(4-(4-Fluorophenyl)piperazin-1-yl)propyl)-1,2-dimethyl-5-phenyl-1H-pyrrole-3-carboxamide] were 493 nM, 22 nM and 183 nM.
As to `Cc1[nH]c(-c2ccccc2)c(C)c1C(=O)NCCCCN1CCN(c2cccc(Cl)c2Cl)CC1` [Example 78, N-(4-(4-(2,3-dichlorophenyl)piperazin-1-yl)butyl)-2,4-dimethyl-5-phenyl-1H-pyrrole-3-carboxamide hydrochloride], the values for the IC50 in test [1], in test [2] and in test [3] were 10 nM, 19 nM and 74 nM, respectively.
In the case of `Cc1[nH]c(-c2ccccc2)c(C)c1C(=O)NCCCN1CCN(c2cccc(Cl)c2Cl)CC1` [Example 77, N-(3-(4-(2,3-dichlorophenyl)piperazin-1-yl)propyl)-2,4-dimethyl-5-phenyl-1H-pyrrole-3-carboxamide hydrochloride], the results for the IC50 in test [1], in test [2] and in test [3] were 16 nM, 39 nM and 36 nM, respectively.
As to `CCn1c(-c2ccccc2)cc(C(=O)NCCCN2CCN(c3cccc(C)c3C)CC2)c1C` [Example 5, N-(3-(4-(2,3-dimethylphenyl)piperazin-1-yl)propyl)-1-ethyl-2-methyl-5-phenyl-1H-pyrrole-3-carboxamide], the IC50 in test [1] was 139 nM; in test [2], 75 nM; in test [3], 35.9 nM.
Taken in the same sequence, the figures for `CCCn1c(-c2ccc(Cl)cc2)cc(C(=O)NCCCN2CCN(c3cccc(Cl)c3Cl)CC2)c1C` [Example 66, 5-(4-chlorophenyl)-N-(3-(4-(2,3-dichlorophenyl)piperazin-1-yl)propyl)-2-methyl-1-propyl-1H-pyrrole-3-carboxamide hydrochloride] were 41 nM, 333 nM and 1160 nM.
Take `Cc1c(C(=O)NCCCN2CCN(c3cccc(Cl)c3Cl)CC2)cc(-c2ccccc2)n1C` [Example 10, N-(3-(4-(2,3-dichlorophenyl)piperazin-1-yl)propyl)-1,2-dimethyl-5-phenyl-1H-pyrrole-3-carboxamide]: the IC50 in test [1] worked out at 12 nM; in test [2], 46.2 nM; in test [3] it was 61.7 nM.
Taken in the same sequence, the figures for `Cc1[nH]c(-c2ccccn2)cc1C(=O)NCCCN1CCN(c2cccc(Cl)c2Cl)CC1` [Example 91, N-(3-(4-(2,3-dichlorophenyl)piperazin-1-yl)propyl)-2-methyl-5-(pyridin-2-yl)-1H-pyrrole-3-carboxamide dihydrochloride] were 211 nM, 21 nM and 28 nM.
Taken in the same sequence, the figures for `Cc1c(C(=O)NCCCN2CCN(c3cccc(Cl)c3Cl)CC2)cc(-c2ccncc2)n1C` [Example 106, N-(3-(4-(2,3-dichlorophenyl)piperazin-1-yl)propyl)-1,2-dimethyl-5-(pyridin-4-yl)-1H-pyrrole-3-carboxamide] were 175 nM, 39 nM and 85 nM.
In the case of `CCCn1c(-c2ccccc2)cc(C(=O)NCCCN2CCN(c3cccc(Cl)c3Cl)CC2)c1Cl` [Example 116], the IC50 came to 136 nM in test [1], 69 nM in test [2] and 1090 nM in test [3].
Consider `Cc1c(C(=O)NCCCN2CCN(c3cccc(Cl)c3Cl)CC2)cc(-c2cccnc2)n1C` [Example 100, N-(3-(4-(2,3-dichlorophenyl)piperazin-1-yl)propyl)-1,2-dimethyl-5-(pyridin-3-yl)-1H-pyrrole-3-carboxamide], for which the IC50 stood at 209 nM in test [1], 49 nM in test [2] and 92 nM in test [3].
In the same order, the values of `CCCCCCn1c(-c2ccccc2)cc(C(=O)NCCCN2CCN(c3cccc(Cl)c3Cl)CC2)c1C` [Example 72, N-(3-(4-(2,3-dichlorophenyl)piperazin-1-yl)propyl)-1-hexyl-2-methyl-5-phenyl-1H-pyrrole-3-carboxamide hydrochloride] are 68 nM, 300 nM and 1190 nM.
Turning to `CCCn1c(-c2ccccc2)cc(C(=O)NCCN2CCN(c3cccc(Cl)c3Cl)CC2)c1C` [Example 39, N-(2-(4-(2,3-dichlorophenyl)piperazin-1-yl)ethyl)-2-methyl-5-phenyl-1-propyl-1H-pyrrole-3-carboxamide hydrochloride], the half-inhibitory concentration (IC50) turned out to be 310 nM in test [1], 408 nM in test [2] and 32 nM in test [3].
Taken in the same sequence, the figures for `CCn1c(-c2ccccc2)cc(C(=O)NCCCCN2CCN(c3cccc(C)c3C)CC2)c1C` [Example 42, N-(4-(4-(2,3-dimethylphenyl)piperazin-1-yl)butyl)-1-ethyl-2-methyl-5-phenyl-1H-pyrrole-3-carboxamide hydrochloride] were 17 nM, 10 nM and 65 nM.
Taken in the same sequence, the figures for `Cc1cccc(N2CCN(CCCNC(=O)c3cc(-c4ccccc4)n(-c4ccc(F)cc4)c3C)CC2)c1C` [Example 15, N-(3-(4-(2,3-dimethylphenyl)piperazin-1-yl)propyl)-1-(4-fluorophenyl)-2-methyl-5-phenyl-1H-pyrrole-3-carboxamide] were 162 nM, 6.9 nM and 53.6 nM.
Taken in the same sequence, the figures for `COc1ccc(-c2cc(C(=O)NCCCN3CCN(c4cccc(Cl)c4Cl)CC3)c(C)n2C)cc1` [Example 74, N-(3-(4-(2,3-dichlorophenyl)piperazin-1-yl)propyl)-5-(4-methoxyphenyl)-1,2-dimethyl-1H-pyrrole-3-carboxamide hydrochloride] were 101 nM, 108 nM and 76.2 nM.
